The record followed here is patent publication US6368413B1, “Process for preparing improved sugar product” (Praxair Technology, Inc., priority 2000, dated 2002).

This experiment has as its system Aerobic Bacteria. The experiment can be described thus: Disinfection of sugar liquor by ozonation, aerobic bacteria count. On the procedure:
In the laboratory, tests were performed on refinery liquors at Brix 66 to 70 and color between 60 and 300 Icumsa units (the color of sugar liquors is expressed in Icumsa units following the specific and standardized methodology well known in the sugar industry). A laboratory model generator was used to pass ozone into a batch reactor. The ozone generator was operating on a pure feed gas and it produced 40 g/h of ozone at 5% concentration. Two mixer reactors were used, the first one operating at 800 rpm under a pressure of 60 psig with 2L capacity and the second one operating at atmospheric pressure and 1200 rpm with 10 L capacity. A series of tests were carried out with different types of liquors and the treated sugar was characterized in terms of color, turbidity, pH, saccharose degradation, toxicity and disinfection. The following examples present results of experiments performed in different ozonation conditions with different types of liquors. A 184 Icumsa color units liquor was treated with 200 mg/L of ozone during 8 min using the pressurized reactor. A low color liquor, 64 Icumsa units was treated in the atmospheric pressure reactor under two different ozonation conditions. The following table presents the results of microbiological analyses.

The structures appear in SMILES notation.

For the molecule `O=[O+][O-]` [ozone], the “reduction of number of total bacteria after ozonation” value (Example 6: 200 mg/L ozone, 8 min) was determined as 95%. The same molecule showed a reduction of bacteria (Example 7: 200 mg/l ozone) of 89%. Also, the disinfection result (Example 7: 400 mg/L of ozone) was “complete disinfection”.
